From PMC2185538, “Purification of the full-length Xenopus interphotoreceptor retinoid binding protein and growth of diffraction-quality crystals” (Molecular Vision, 2007)

Molecular target: T1, Xenopus interphotoreceptor retinoid-binding protein (xIRBP) (Xenopus laevis, UniProt Q7SZI7)
T1 construct: gene rbp3; recombinant full-length four-module xIRBP (1197 amino acids; 131 kDa), free of its thioredoxin fusion partner; vector-derived N-terminal G-L-G-D-P
Assay: fluorescence titration: retinol fluorescence enhancement (also tryptophan quenching, Kd […], and energy transfer, Kd […])

T1 sequence (Q7SZI7 23-1219): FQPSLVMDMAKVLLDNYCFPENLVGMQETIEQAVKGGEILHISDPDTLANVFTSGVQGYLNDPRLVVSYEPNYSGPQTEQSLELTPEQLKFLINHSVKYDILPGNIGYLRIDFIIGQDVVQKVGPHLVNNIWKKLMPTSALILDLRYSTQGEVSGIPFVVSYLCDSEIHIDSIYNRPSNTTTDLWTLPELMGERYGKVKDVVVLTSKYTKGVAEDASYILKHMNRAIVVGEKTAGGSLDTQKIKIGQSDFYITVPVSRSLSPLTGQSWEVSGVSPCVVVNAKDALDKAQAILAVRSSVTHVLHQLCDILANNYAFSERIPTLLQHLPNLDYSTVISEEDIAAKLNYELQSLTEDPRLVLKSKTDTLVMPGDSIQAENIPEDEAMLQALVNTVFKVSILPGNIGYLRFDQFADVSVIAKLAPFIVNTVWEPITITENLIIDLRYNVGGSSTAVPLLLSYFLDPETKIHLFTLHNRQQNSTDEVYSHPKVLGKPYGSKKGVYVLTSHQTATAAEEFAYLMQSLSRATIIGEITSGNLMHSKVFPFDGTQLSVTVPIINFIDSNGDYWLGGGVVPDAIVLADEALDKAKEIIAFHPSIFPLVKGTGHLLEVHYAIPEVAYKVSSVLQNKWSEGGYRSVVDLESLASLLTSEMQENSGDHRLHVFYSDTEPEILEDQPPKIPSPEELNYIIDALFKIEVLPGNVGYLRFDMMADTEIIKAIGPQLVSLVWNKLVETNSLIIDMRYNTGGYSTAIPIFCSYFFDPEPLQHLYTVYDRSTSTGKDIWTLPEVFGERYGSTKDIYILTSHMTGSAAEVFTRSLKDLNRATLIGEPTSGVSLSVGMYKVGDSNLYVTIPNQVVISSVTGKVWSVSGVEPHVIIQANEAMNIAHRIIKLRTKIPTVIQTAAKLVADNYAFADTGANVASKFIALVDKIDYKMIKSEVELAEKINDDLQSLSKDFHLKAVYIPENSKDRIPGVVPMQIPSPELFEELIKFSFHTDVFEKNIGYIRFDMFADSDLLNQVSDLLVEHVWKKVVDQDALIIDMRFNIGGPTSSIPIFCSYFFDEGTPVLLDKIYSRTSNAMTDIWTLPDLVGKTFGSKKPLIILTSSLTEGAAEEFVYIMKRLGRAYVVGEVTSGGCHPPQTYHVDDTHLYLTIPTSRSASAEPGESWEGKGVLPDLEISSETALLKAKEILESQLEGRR

- Kd: 150 ± 30 nM
SMILES: CC1=C(/C=C/C(C)=C/C=C/C(C)=C/CO)C(C)(C)CCC1 [all-trans retinol]
